Test results as given in patent EP0233105A1 (priority 1986, dated 1987).
Values after ≈ are worked out from the molar mass of the structure shown.

Legend:
[1] = Lethal dose 50% (inhibition of growth of normal cells); assay type: cell-based; settings: monkey; concentration inhibiting 50% of growth of normal VERO cells; no unit in table, test concentrations given in microgrammes/ml; read-out: DL50 (the source's name)
Method: On a par ailleurs déterminé la dose léthale 50% (DL50) la dose efficace 90% et 99% (DE90 et DE99) et l'indice thérapeutique 90 et 99 (IT90 et IT99) en utilisant les méthodes suivantes :
Les composés ont été préparés à la dose 1 mg/ml dans unvolume maximal de 0,1 ml de diméthyl- sulfoxyde et addition jusqu'à 12 ml d'un milieu de maintenance M-2. Les dilutions ont été effectuées avec le milieu de maintenance M-2.
La DL50 est la concentration à laquelle 50% de la croissance des cellules normales est inhibée. Pour cette détermination on a utilisé 5.10^5 cellules VERO en suspension dans 10 ml de milieu E199 additionné de 6% de sérum de veau (CS) et de gentamycine(20 microgrammes/ml). Les composés ont été ajoutés pour obtenir des concentrations finales de 200;100;-75;50;25;10;5;3;2;1;0,1 et 0,01 microgrammes/ml.

[2] = test system: virus (Polio type I); assay: microbe, parasite or virus in culture; assay type: cell-based; settings: for EC90 / EC99: Vero; for EC90: read-out: DE90; for EC99: read-out: DE 99; for IT90: therapeutic index = DL50 divided by DE90; for IT99: therapeutic index = DL50 divided by DE99

With `COc1c(-c2ccc(O)cc2)oc2ccc(O)cc2c1=O` [3-méthoxy-4',6-dihydroxyflavone] the CC50 [1] was 3 µg/mL (≈ 10.6 µM), the EC90 [2] was 0.5 µg/mL (≈ 1.76 µM) and the EC99 [2] was 2 µg/mL. The IT90 [2] was 6 and the IT99 [2] was 1,5.
`COc1c(-c2ccc(O)cc2)oc2cc(C)ccc2c1=O` [3-méthoxy-4'-hydroxy-7-méthylflavone] showed a CC50 [1] of 25 µg/mL (≈ 88.6 µM), an EC90 [2] of 0.5 µg/mL (≈ 1.77 µM) and an EC99 [2] of 2 µg/mL. The IT90 [2] was 50 and the IT99 [2] was 12,5.
With `COc1c(-c2ccc(O)cc2)oc2ccc(Cl)cc2c1=O` [3-méthoxy-4'-hydroxy-6-chloroflavone] the CC50 [1] was 100 µg/mL (≈ 330 µM), the EC90 [2] was 2 µg/mL (≈ 6.61 µM) and the EC99 [2] was 6 µg/mL. It also gave an IT90 [2] of 50 and an IT99 [2] of 17.
`COc1ccc(-c2oc3ccc(O)cc3c(=O)c2OC)cc1` [3,4'-diméthoxy-6-hydroxyflavone] gave a CC50 [1] of 200 µg/mL (≈ 670 µM), an EC90 [2] of 100 µg/mL (≈ 335 µM) and an EC99 [2] of 200 µg/mL. It also gave an IT90 [2] of 2 and an IT99 [2] of 1.
With `COc1ccc(-c2oc3c(OC)c(OC)c(OC)c(O)c3c(=O)c2OC)cc1OC` [3,3',4',6,7,8-hexaméthoxy-5-hydroxyflavone] the CC50 [1] was 200 µg/mL (≈ 478 µM), the EC90 [2] was 20 µg/mL (≈ 47.8 µM) and the EC99 [2] was 25 µg/mL. It also gave an IT90 [2] of 10 and an IT99 [2] of 8.
For `COc1c(-c2ccc(OCc3ccccc3)cc2)oc2ccccc2c1=O` [3-méthoxy-4'-benzyloxyflavone], the CC50 [1] was 100 µg/mL (≈ 279 µM), the EC90 [2] was 30 µg/mL (≈ 83.7 µM) and the EC99 [2] was 100 µg/mL. For the same compound, the IT90 [2] was 3,3 and the IT99 [2] was 1.
`COc1ccc(-c2oc3cc(OC)c(OC)c(OC)c3c(=O)c2OC)cc1OC` [3,3',4',5,6,7-hexaméthoxyflavone] gave a CC50 [1] of 200 µg/mL (≈ 497 µM), an EC90 [2] of 100 µg/mL (≈ 249 µM) and an EC99 [2] of 200 µg/mL. For the same compound, the IT90 [2] was 2 and the IT99 [2] was 1.
Compound `COc1ccc(-c2oc3ccc(OC)cc3c(=O)c2OC)cc1` [3,4',6-triméthoxyflavone] has a CC50 [1] of 100 µg/mL (≈ 320 µM), an EC90 [2] of 2 µg/mL (≈ 6.4 µM) and an EC99 [2] of 50 µg/mL. It also gave an IT90 [2] of 50 and an IT99 [2] of 2.
Compound `COc1c(-c2ccc(O)cc2)oc2cc(Cl)ccc2c1=O` [3-méthoxy-4'-hydroxy-7-chloroflavone] has a CC50 [1] of 100 µg/mL (≈ 330 µM), an EC90 [2] of 5 µg/mL (≈ 16.5 µM) and an EC99 [2] of 7 µg/mL. For the same compound, the IT90 [2] was 20 and the IT99 [2] was 14,3.
Work on `COc1c(-c2ccc(O)cc2)oc2ccccc2c1=O` [3-méthoxy-4'-hydroxyflavone] yielded a CC50 [1] of 10 µg/mL (≈ 37.3 µM), an EC90 [2] of 3 µg/mL (≈ 11.2 µM) and an EC99 [2] of 6 µg/mL. For the same compound, the IT90 [2] was 3,3 and the IT99 [2] was 1.66.
Work on `COc1c(-c2ccc(O)cc2)oc2c(OC)cccc2c1=O` [3,8-diméthoxy-4'-hydroxyflavone] yielded a CC50 [1] of 25 µg/mL (≈ 83.8 µM), an EC90 [2] of 10 µg/mL (≈ 33.5 µM) and an EC99 [2] of 20 µg/mL. The IT90 [2] was 2,5 and the IT99 [2] was 1,2.
Work on `COc1ccc(-c2oc3c(OC)c(OC)c(OC)c(OC)c3c(=O)c2OC)cc1OC` [3,3',4',5,6,7,8-heptaméthoxyflavone] yielded a CC50 [1] of 200 µg/mL (≈ 463 µM), an EC90 [2] of 20 µg/mL (≈ 46.3 µM) and an EC99 [2] of 25 µg/mL. The IT90 [2] was 10 and the IT99 [2] was 8.
In the case of `COc1c(-c2ccc(Cl)cc2)oc2cc(C)ccc2c1=O` [3-méthoxy-4'-chloro-7-méthylflavone], the CC50 [1] is reported as 10 µg/mL (≈ 33.3 µM), the EC90 [2] is reported as 10 µg/mL (≈ 33.3 µM) and the EC99 [2] is reported as 20 µg/mL. It also gave an IT90 [2] of 1 and an IT99 [2] of 0.5.
`COc1cc2oc(-c3ccc(O)cc3)c(OC)c(=O)c2c(O)c1OC` [3,6,7-triméthoxy-4',5-dihydroxyflavone] gave a CC50 [1] of 100 µg/mL (≈ 290 µM), an EC90 [2] of 0.5 µg/mL (≈ 1.45 µM) and an EC99 [2] of 5 µg/mL. It also gave an IT90 [2] of 200 and an IT99 [2] of 20.
`COc1c(-c2ccc(O)cc2)oc2cccc(OC)c2c1=O` [3,5-diméthoxy-4'-hydroxyflavone] gave a CC50 [1] of 150 µg/mL (≈ 503 µM), an EC90 [2] of 5 µg/mL (≈ 16.8 µM) and an EC99 [2] of 10 µg/mL. The IT90 [2] was 30 and the IT99 [2] was 15.
For `COc1c(O)cc2oc(-c3ccc(O)cc3)c(OC)c(=O)c2c1O` [3,6-diméthoxy-4',5,7-trihydroxyflavone], the CC50 [1] was 20 µg/mL (≈ 60.6 µM), the EC90 [2] was 0.5 µg/mL (≈ 1.51 µM) and the EC99 [2] was 1 µg/mL. It also gave an IT90 [2] of 40 and an IT99 [2] of 20.
With `COc1ccc(-c2oc3cc(O)c(OC)c(O)c3c(=O)c2OC)cc1` [3,4',6-triméthoxy-5,7-dihydroxyflavone] the CC50 [1] was 50 µg/mL (≈ 145 µM), the EC90 [2] was 1 µg/mL (≈ 2.9 µM) and the EC99 [2] was 10 µg/mL. The IT90 [2] was 50 and the IT99 [2] was 5.
In the case of `COc1ccc2oc(-c3ccc(O)cc3)c(OC)c(=O)c2c1` [3,6-diméthoxy-4'-hydroxyflavone], the CC50 [1] is reported as 200 µg/mL (≈ 670 µM), the EC90 [2] is reported as 7 µg/mL (≈ 23.5 µM) and the EC99 [2] is reported as 25 µg/mL. For the same compound, the IT90 [2] was 29 and the IT99 [2] was 8.
For `COc1c(-c2ccc(O)cc2)oc2cc(F)ccc2c1=O` [3-méthoxy-4'-hydroxy-7-fluoroflavone], the CC50 [1] was 20 µg/mL (≈ 69.9 µM), the EC90 [2] was 1 µg/mL (≈ 3.49 µM) and the EC99 [2] was 6 µg/mL. For the same compound, the IT90 [2] was 20 and the IT99 [2] was 3,2.
Work on `COc1ccc2c(=O)c(OC)c(-c3ccc(O)cc3)oc2c1` [3,7-diméthoxy-4'-hydroxyflavone] yielded a CC50 [1] of 25 µg/mL (≈ 83.8 µM), an EC90 [2] of 1 µg/mL (≈ 3.35 µM) and an EC99 [2] of 5 µg/mL. It also gave an IT90 [2] of 25 and an IT99 [2] of 5.
`COc1c(-c2ccc(O)cc2)oc2ccc(C)cc2c1=O` [3-méthoxy-4'-hydroxy-6-methylflavone] showed a CC50 [1] of 75 µg/mL (≈ 266 µM), an EC90 [2] of 1 µg/mL (≈ 3.54 µM) and an EC99 [2] of 5 µg/mL. The IT90 [2] was 75 and the IT99 [2] was 15.
